Common to all, as to type: cell-based
Data set [1] concerns gamma secretase-dependent cleavage of the Notch protein (NotchΔE) in HeLa cells. Kind of data set: Notch processing split-luciferase assay (Notch intracellular domain release). The text has this: Notch Processing: (Assay Quantitates Notch Intracellular Domain Release in Cell Lines):
A “split-luciferase” assay is used to measure inhibition of gamma secretase-dependent cleavage of the Notch protein. In this assay, HeLa cells were made to express a Notch protein lacking its extracellular domain (NotchΔE) fused to an N-terminal fragment of luciferase. The same cells also expressed a C-terminal fragment of luciferase fused to the immunoglobulin J kappa recombination signal sequence binding protein (RBP). Upon NotchΔE cleavage by gamma secretase, a Notch intracellular domain (NICD)-N terminal luciferase protein is generated which translocates to the nucleus and binds the RBP-C terminal luciferase fusion, bringing two independently nonfunctional halves of luciferase together to form a functional luciferase enzyme. The activity of luciferase in these cells is directly proportional to the amount of gamma secretase-cleaved Notch. Luciferase activity is determined by the standard techniques of luciferin addition to lysed cells and measurement of total luminescence.

Data set [2] relates to Aβ42 peptides generated from SH-SY5Y cells expressing amyloid β protein (SP4CT cells). Kind of data set: APP processing AlphaLisa assay, secreted Aβ42. The following applies: average of at least >4 replicates, read-out: AB42 IC50 AVG. The procedure: (§1) APP Processing (Assay Quantitates Secreted Aβ Analytes from Cell Lines):
(§2) The effect of compounds on the abundance of Aβ40 and Aβ42 peptides generated from SH-SY5Y cells expressing amyloid β protein (SP4CT cells) was determined by an AlphaLisa™ assay. Analogous to an ELISA assay, generation of signal in this AlphaLisa™ assay requires “donor” and “acceptor” beads to be brought in close proximity by specific antibody recognition of either Aβ40 or Aβ42 peptides. The assay was accomplished by removing media from compound-treated SP4CT cells to two different microplates, followed by the addition of donor beads conjugated with streptavidin binding a biotinylated anti-amyloid β monoclonal antibody (clone 4G8). Acceptor beads directly conjugated with anti-Aβ40 monoclonal antibody (G210) were added to one microplate and anti-Aβ42 monoclonal antibody (12F4) acceptor beads were added to the other. Abundance of Aβ40 and Aβ42 was directly proportional to the luminescent signal generated following excitation of donor beads by laser light.

Data set [3] relates to Aβ40 peptides generated from SH-SY5Y cells expressing amyloid β protein (SP4CT cells). As to the kind of experiment: APP processing AlphaLisa assay, secreted Aβ40. The settings on record: average of at least >4 replicates, read-out: AB40 IC50 AVG. The procedure:
as §1, §2
(Alpha assays give light when donor and acceptor beads are brought close together.)

Data set [4] has as its target T1, pregnane X receptor (PXR) (Homo sapiens, UniProt O75469).
T1 construct: expressed in transfected cells; host or cells: HEP G2
T1 sequence (O75469 1-434): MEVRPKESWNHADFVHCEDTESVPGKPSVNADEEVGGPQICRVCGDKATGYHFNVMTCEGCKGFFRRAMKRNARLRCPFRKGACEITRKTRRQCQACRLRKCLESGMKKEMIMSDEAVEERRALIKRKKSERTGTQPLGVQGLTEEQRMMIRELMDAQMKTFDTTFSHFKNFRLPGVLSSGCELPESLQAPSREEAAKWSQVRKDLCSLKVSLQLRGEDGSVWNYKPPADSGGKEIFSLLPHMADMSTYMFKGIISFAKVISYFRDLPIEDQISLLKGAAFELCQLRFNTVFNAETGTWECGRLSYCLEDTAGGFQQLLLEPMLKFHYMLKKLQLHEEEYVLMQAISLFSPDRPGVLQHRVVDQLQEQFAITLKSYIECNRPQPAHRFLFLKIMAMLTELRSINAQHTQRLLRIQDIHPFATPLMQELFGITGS
T1 sequence (P19793 1-462 partner): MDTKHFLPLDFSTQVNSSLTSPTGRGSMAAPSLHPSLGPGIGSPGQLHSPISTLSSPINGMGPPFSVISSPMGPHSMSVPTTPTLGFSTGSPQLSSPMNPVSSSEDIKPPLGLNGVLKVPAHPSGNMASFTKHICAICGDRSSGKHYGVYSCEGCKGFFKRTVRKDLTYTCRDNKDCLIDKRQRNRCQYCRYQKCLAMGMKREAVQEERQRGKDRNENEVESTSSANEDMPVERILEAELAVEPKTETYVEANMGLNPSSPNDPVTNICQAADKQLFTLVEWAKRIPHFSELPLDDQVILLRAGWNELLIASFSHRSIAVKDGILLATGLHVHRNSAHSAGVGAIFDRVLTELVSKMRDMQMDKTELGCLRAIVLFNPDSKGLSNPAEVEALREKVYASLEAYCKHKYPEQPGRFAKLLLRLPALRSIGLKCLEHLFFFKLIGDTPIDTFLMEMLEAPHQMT
Kind of data set: PXR assay (CYP3A4-SEAP transactivation assay, PCSTA). The settings on record: for EC50: HEP G2 cells. An excerpt:
The CYP3A4-SEAP transactivation assay (PCSTA) effectively and rapidly evaluates compounds for their potential to induce cytochrome P450 CYP3A (human CYP3A4 or rat CYP3A1). The reporter construct contains regulatory regions from the CYP3A4 gene positioned just upstream of a secreted alkaline phosphatase (SEAP) gene. The human PXR nuclear receptor has been modified at the 5′-end so that methionine is the initiating amino acid replacing leucine found in the wild-type sequence. HEP G2 cells are transfected with the PXR plasmid (human or rat) and the reporter plasmid. Read-out for the induction of CYP3A4 consists of a SEAP calorimetric assay with para-nitro-phenyl phosphate (pNPP) as the substrate. Five point dose-response curves in duplicate are then generated with each point corresponding to the rate of conversion of pNPP to pNP by SEAP. For the human PCSTA, rifampicin is used as the positive control and 100% induction is based upon the maximum induction produced by rifampicin at 10 μM.

Where [5] appears, read: average of at least >4 replicates, read-out: Notch IC50 AVG.
Where [6] appears, read: Homo sapiens, HeLa, average of at least >4 replicates, read-out: Notch IC50 AVG.
The mark [7] stands for this setting: read-out: Notch IC50 AVG, average of at least >4 replicates.

Like-named read-outs stand apart in the source and are kept apart here.

A word on the IC50: it is the concentration that gives 50% inhibition. Broadly, the EC50 is the concentration at which the effect is half-maximal.

Take `CN(C1CC(c2cc(F)ccc2F)(S(=O)(=O)c2ccc(Cl)cc2)C1)S(=O)(=O)C(F)(F)F` (stereo not drawn) [Example 13, N-[3-[(4-chlorophenyl)sulfonyl]-3-(2,5-difluorophenyl)cyclobutyl]-1,1,1-trifluoro-N-methylmethanesulfonamide]: the IC50 in data set [1] (setting [5]) turned out to be 4810 nM; in data set [2] it was 18.9 nM; in data set [3] it was 18.4 nM. In data set [4], this molecule registered an EC50 of 1260 nM.

For the molecule `N#Cc1ccc(S(=O)(=O)C2(c3cc(F)ccc3F)CC(NS(=O)(=O)C(F)(F)F)C2)cc1` (stereo not drawn) [Example 9, N-[cis-3-[(4-cyanophenyl)sulfonyl]-3-(2,5-difluorophenyl)cyclobutyl]-1,1,1-trifluoromethanesulfonamide], the half-maximal inhibitory concentration (IC50) in data set [1] (setting [6]) came out at 8900 nM; in data set [2] (Homo sapiens, SH-SY5Y) it was 231 nM; in data set [3] (Homo sapiens, SH-SY5Y) it was 260 nM. Also, the “PXR % Activation @ 10 uM” value in data set [4] stood at 54.9%. For the same molecule, the EC50 in data set [4] is 8360 nM.

Take `O=S(=O)(N([C@H]1C[C@@](c2cc(F)ccc2F)(S(=O)(=O)c2ccc(Cl)cc2)C1)S(=O)(=O)C(F)(F)F)C(F)(F)F` [Example 19, N-[cis-3-[(4-chlorophenyl)sulfonyl]-3-(2,5-difluorophenyl)cyclobutyl]-1,1,1-trifluoro-N-[(trifluoromethyl)sulfonyl]methanesulfonamide]: the IC50 came to 5680 nM in data set [1] (setting [6]); 48.7 nM in data set [2] (Homo sapiens, SH-SY5Y); 62.6 nM in data set [3] (Homo sapiens, SH-SY5Y). Further, in data set [4], the “PXR % Activation @ 10 uM” value is reported as 89.1%. In data set [4], this molecule returned an EC50 of 1250 nM.

Turning to `O=C(O)CN([C@H]1C[C@@](c2cc(F)ccc2F)(S(=O)(=O)c2ccc(Cl)cc2)C1)S(=O)(=O)C(F)(F)F` [Example 16, N-[cis-3-[(4-chlorophenyl)sulfonyl]-3-(2,5-difluorophenyl)cyclobutyl]-N-[(trifluoromethyl)sulfonyl]glycine], the IC50 in data set [1] (setting [6]) is 32000 nM; in data set [2] (Homo sapiens, SH-SY5Y), 67.9 nM; in data set [3] (Homo sapiens, SH-SY5Y), 96.7 nM. In addition, in data set [4], the “PXR % Activation @ 10 uM” value stood at 100%. Besides, the EC50 in data set [4] came to 1010 nM.

In the case of `CC1(NS(=O)(=O)C(F)(F)F)CC(c2cc(F)ccc2F)(S(=O)(=O)c2ccc(C(F)(F)F)cc2)C1` (stereo not drawn) [Example 18, N-(cis-3-(2,5-difluorophenyl)-1-methyl-3-{[4-(trifluoromethyl)phenyl]sulfonyl}cyclobutyl)-1,1,1-trifluoromethanesulfonamide], the IC50 in data set [1] (setting [6]) stood at 4470 nM; in data set [2] (Homo sapiens, SH-SY5Y), 65.4 nM; in data set [3] (Homo sapiens, SH-SY5Y), 60.8 nM. Further, the “PXR % Activation @ 10 uM” value in data set [4] turned out to be 75.5%. Moreover, in data set [4], the EC50 stood at 3090 nM.

For `O=S(=O)(NC1CC(c2cc(F)ccc2F)(S(=O)(=O)c2ccc(F)c(F)c2)C1)C(F)(F)F` (stereo not drawn) [Example 8, N-{cis-3-(2,5-difluorophenyl)-3-[(3,4-difluorophenyl)sulfonyl]cyclobutyl}-1,1,1-trifluoromethanesulfonamide], the IC50 in data set [1] (setting [6]) stood at 3140 nM; in data set [2] (Homo sapiens, SH-SY5Y) it was 62.8 nM; in data set [3] (Homo sapiens, SH-SY5Y) it was 79.2 nM. In data set [4], the “PXR % Activation @ 10 uM” value amounted to 82.3%. Moreover, in data set [4], a half-maximal response (EC50) required 1260 nM.

As for `CN(C1CC(c2cc(F)ccc2F)(S(=O)(=O)c2ccc(Cl)cc2)C1)S(=O)(=O)C(F)(F)F` (stereo not drawn) [Example 14, N-[3-[(4-chlorophenyl)sulfonyl]-3-(2,5-difluorophenyl)cyclobutyl]-1,1,1-trifluoro-N-methylmethanesulfonamide], the IC50 stood at 9860 nM in data set [1] (setting [5]), 97.1 nM in data set [2] and 89.9 nM in data set [3]. This molecule registered an EC50 in data set [4] of 829 nM.

`O=S(=O)(NC1CC(c2cc(Cl)ccc2F)(S(=O)(=O)c2ccc(Cl)cc2)C1)C(F)(F)F` (stereo not drawn) [Example 6, N-{cis-3-(5-chloro-2-fluorophenyl)-3-[(4-chlorophenyl)sulfonyl]cyclobutyl}-1,1,1-trifluoromethanesulfonamide]: the IC50 in data set [1] (setting [6]) came out at 5640 nM; in data set [2] (Homo sapiens, SH-SY5Y), 106 nM; in data set [3] (Homo sapiens, SH-SY5Y), 130 nM. Also, the “PXR % Activation @ 10 uM” value in data set [4] came to 79.2%. In data set [4], the EC50 came to 1990 nM.

As to `O=S(=O)(N[C@H]1C[C@@](c2cc(F)ccc2F)(S(=O)(=O)c2ccc(OC(F)(F)F)cc2)C1)C(F)(F)F` [Example 22, N-[cis-3-[(4-trifluoromethoxyphenyl)sulfonyl]-3-(2,5-difluorophenyl)cyclobutyl]-1,1,1-trifluoromethanesulfonamide], the IC50 in data set [1] (setting [6]) was determined as 5200 nM; in data set [2] (Homo sapiens, SH-SY5Y) it was 237 nM; in data set [3] (Homo sapiens, SH-SY5Y) it was 250 nM. Also, the “PXR % Activation @ 10 uM” value in data set [4] amounted to 50.6%. Besides, in data set [4], the EC50 was 9650 nM.

On to `COC(=O)CCCN([C@H]1C[C@@](c2cc(F)ccc2F)(S(=O)(=O)c2ccc(Cl)cc2)C1)S(=O)(=O)C(F)(F)F` [Example 15, methyl 4-{[cis-3-[(4-chlorophcnyl)sulfonyl]-3-(2,5-difluorophenyl)cyclobutyl][(trifluoromethyl)sulfonyl]amino}butanoate], for which the IC50 stood at 2830 nM in data set [1] (setting [6]); 51.8 nM in data set [2] (Homo sapiens, SH-SY5Y); 51.8 nM in data set [3] (Homo sapiens, SH-SY5Y). In data set [4], the EC50 was 1210 nM.

On to `O=S(=O)([N-][C@H]1C[C@@](c2cc(F)ccc2F)(S(=O)(=O)c2ccc(Cl)cc2)C1)C(F)(F)F.[Na+]` [Example 20, Sodium [cis-3-[(4-chlorophenyl)sulfonyl]-3-(2,5-difluorophenyl)cyclobutyl][(trifluoromethyl)sulfonyl]azanide], for which the IC50 in data set [1] (setting [7]) was 1770 nM; in data set [2] it was 53.2 nM; in data set [3], 61.2 nM. In addition, in data set [4], the “PXR % Activation @ 10 uM” value was determined as 71.9%. The molecule also displayed an EC50 in data set [4] of 2890 nM.

With `O=S(=O)([N-][C@H]1C[C@@](c2cc(F)ccc2F)(S(=O)(=O)c2ccc(Cl)cc2)C1)C(F)(F)F.[K+]` [Example 21, Potassium [cis-3-[(4-chlorophenyl)sulfonyl]-3-(2,5-difluorophenyl)cyclobutyl][(trifluoromethyl)sulfonyl]azanide], the results for the IC50 in data set [1] (setting [7]), in data set [2] and in data set [3] were 2130 nM, 70.9 nM and 64.9 nM, respectively. Besides, in data set [4], the “PXR % Activation @ 10 uM” value is 64.4%. Further, the half-maximal effective concentration (EC50) in data set [4] stood at 3380 nM.

These data come from US8759579B2, “Cyclobutyl sulfones as notch sparing gamma secretase inhibitors” (Merck Sharp & Dohme Corp., priority 2008, dated 2014).
